# According to paper PMC6848974 (Science translational medicine, 2019):
# Entries after “also recorded” stand apart in the source; their conditions may differ.
# How the values were obtained:
# [1] = test system: A/California/07/2009 (H1N1); parameters: species or system ferrets; conditions: in vivo
# [2] = PK of NHC and EIDD-2801 in mice
# [3] = Plasma PK in cynomolgus macaques; type: in vivo; conditions: non-human primates
# [4] = test system: ferret lung nuclear (TNFα) and mitochondrial (COX15) mRNAs; conditions: in vivo, po, 100 mg/kg
# [5] = PK and PD; type: in vivo; conditions: ferrets
# [6] = test system: A/Wisconsin/67/2005 (H3N2); parameters: species or system ferrets; conditions: in vivo
# [7] = test system: Ca/09; experiment: cells; type: cell-based, human airway epithelia
# [8] = test system: well-differentiated human airway epithelia
# [9] = test system: HBTEC nuclear (SDH-A) and mitochondrial (COX1) mRNAs; experiment: Transitions in host mRNA of HBTECs; conditions: 72 hours
# [10] = in vitro; conditions: human
# [11] = test system: Ca/09, Wi/05, and B/Brisbane/60/2008; experiment: microbe, parasite or virus in culture; type: cell-based, human airway epithelia
# [12] = test system: HBTECs mitochondrial (COX1) and nuclear (SDH-A) protein expression
smiles,measurement,setting,value
CC(C)C(=O)OC[C@H]1O[C@@H](n2ccc(NO)nc2=O)[C@H](O)[C@@H]1O [EIDD-2801],cellular infiltrates in nasal cavities and blood lymphocyte counts,[1],remained unchanged
same,duration of fever,[1],"shortened; also recorded: significantly (P <0.0001 and P = 0.03, respectively) reduced"
same,reduction of shed viral titers,[1],≥ 4 orders of magnitude
same,reduction of tissue (nasal turbinate) viral titers,[1],more than 4 orders of magnitude
same,relative cytokine and CXCL10 induction,[1],significantly lowered
same,shed virus load,[1],"dropped by several orders of magnitude; also recorded: significantly (P <0.0001 and P = 0.03, respectively) reduced"
same,shed virus load in nasal lavages,[1],at or below limit of detection
same,time at which fever started to decline,[1],approximately 1.5 days after infection
same,viral titers in bronchioalveolar lavages and lung tissue,[1],significantly reduced
same,virus burden in nasal turbinates and tracheas,[1],reduction of several orders of magnitude
same,virus in lung sections by immunohistochemistry,[1],immunohistochemically undetectable
same,hydrolysis in vivo after absorption (only free NHC detected in plasma),[2],efficiently hydrolyzed
same,oral bioavailability compared to NHC,[3],increased oral bioavailability
same,transition frequencies in nuclear and mitochondrial message versus vehicle,[4],indistinguishable
same,oral bioavailability compared to NHC,[5]; oral,increased oral bioavailability
same,tolerability (phenotypically appreciable adverse effects),[5]; seven b.i.d. oral doses at 100 mg/kg,well tolerated
same,drug accumulation on repeat dosing,[5]; single versus multi-dose oral b.i.d.,does not lead to drug accumulation
same,reduction of shed viral titers,[6],≥ 4 orders of magnitude
same,shed virus load in nasal lavages,[6],at or below limit of detection
same,tissue (nasal turbinate) viral titers,[6],undetectable
"O=c1nc(NO)ccn1[C@@H]1O[C@H](CO)[C@@H](O)[C@H]1O [NHC, N^4-hydroxycytidine]",apically released virus load,[7],significantly reduced
same,cytotoxicity threshold,[8],~50 µM
same,off-target effects (transition mutations in host mRNAs),[9]; 1.8 μM NHC,no off-target effects
same,transition mutations in host mRNAs,"[9]; higher NHC concentrations (50 μM, 10 μM)",increased C to U and U to C transitions
same,CC50,[10],137000 nM
same,EC50 in human epithelia lower than in immortalized cell lines,[11],25-50 fold
same,EC99,[11],0.15 to 0.25 µM
same,antiviral effect in infected differentiated epithelia,[11],sterilizing
same,robust efficacy threshold,[11],approximately 0.2 μM
same,EC50,"[11]; Influenza A virus, in Homo sapiens, 72 h",60 to 80 nM
same,impact on mitochondrial versus nuclear protein expression,[12],significantly greater
"CCC(CC)O[C@@H]1C=C(C(=O)O)C[C@H](N)[C@H]1NC(C)=O [oseltamivir carboxylate, reference compound]",EC50,"[7]; Homo sapiens, 72 h",190 nM
"CCOC(=O)C1=C[C@@H](OC(CC)CC)[C@H](NC(C)=O)[C@@H](N)C1 [oseltamivir, oseltamivir-phosphate, reference compound]",bronchiolar inflammation in lung sections versus EIDD-2801 therapeutic groups,[1],more pronounced
same,inhibitory effect on shed virus titer,[1],no significant (P ≥0.13) inhibitory effect
